Each compound was assayed against Beta-secretase 1 (Homo sapiens, UniProt P56817) (assay: Inhibition of BACE1-mediated amyloid beta (1 to 40) production after 48 hrs by cell based HTRF immunoassay).
Beta-secretase 1, sequence (P56817 whole entry): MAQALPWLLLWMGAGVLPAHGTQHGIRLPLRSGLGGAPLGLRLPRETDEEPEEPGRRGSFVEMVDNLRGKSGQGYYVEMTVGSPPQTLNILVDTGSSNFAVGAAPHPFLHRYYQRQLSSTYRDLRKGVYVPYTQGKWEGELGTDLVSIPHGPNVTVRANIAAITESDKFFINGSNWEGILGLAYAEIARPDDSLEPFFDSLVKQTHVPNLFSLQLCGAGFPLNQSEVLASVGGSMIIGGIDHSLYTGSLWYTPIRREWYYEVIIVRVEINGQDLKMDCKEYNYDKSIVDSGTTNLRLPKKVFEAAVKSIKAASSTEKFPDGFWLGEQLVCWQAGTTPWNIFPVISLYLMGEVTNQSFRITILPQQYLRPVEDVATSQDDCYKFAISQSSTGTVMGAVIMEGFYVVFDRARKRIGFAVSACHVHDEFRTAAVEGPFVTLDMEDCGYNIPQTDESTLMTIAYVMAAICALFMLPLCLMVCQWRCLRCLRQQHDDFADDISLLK

Compound	IC50
CN1C(=O)CC2(N=C1N)c1cc(-c3cc(F)cc(Cl)c3)ccc1OC1CC3(CC[C@@H]12)OCCO3 (stereo partly drawn)	3080 nM
NC1=N[C@]2(CO1)c1cc(-c3cncc(Cl)c3)ccc1OC1OC[C@H](OCC3CC3)C[C@@H]12 (mixture of isomers)	8.9 nM
NC1=N[C@@]2(CO1)c1cc(-c3cncc(Cl)c3)ccc1OC1OC[C@H](OCC3CC3)C[C@@H]12 (single isomer, unassigned)	7.8 nM

Reference: ChEMBL document CHEMBL2150907, “BACE-Inhibitors: Potential Treatment of Alzheimer Disease, Dementia, and Related Neurodegenerative Diseases. C. Spiro-Heterocyclic Derivatives: Patent Highlight” (ACS Med Chem Lett, 2012)
